Measurements published in patent US11236084B2, “Substituted azaindoline derivatives as NIK inhibitors” (Janssen Pharmaceutica NV, priority 2017, dated 2022).
Like-named read-outs stand apart in the source and are kept apart here.

How the values were obtained:
[1] = biological target: T1, recombinant human NF-kappaB-inducing kinase (NIK/MAP3K14) (Homo sapiens, UniProt Q99558); test: Biological Assay A: inhibition of recombinant human NF-kappaB-inducing kinase (NIK/MAP3K14) activity (MBP phosphorylation, Mesoscale); details: MSD MBP; averaged over all measurements on all batches; read-out: Assay A Biochemical (MSD MBP) IC50
Description: Pharmacological Part Biological Assay A Inhibition of Recombinant Human NF-kappaB-Inducing Kinase (NIK/MAP3K14) Activity
Assay buffer was 50 mM Tris pH 7.5 containing 1 mM EGTA (ethylene glycol tetraacetic acid), 1 mM DTT (dithiothreitol), 0.1 mM Na3VO4, 5 mM MgCl2, 0.01% Tween® 20. Assays were carried out in 384 well Mesoscale high binding plates which had been coated with myelin basic protein (MBP) and blocked with bovine serum albumin to prevent non-specific protein binding. All compounds tested were dissolved in dimethyl sulfoxide (DMSO) and further dilutions were made in assay buffer. Final DMSO concentration was 1% (v/v) in assays. Incubations consisted of compound (1% DMSO in control and blank wells), 25 μM […] (ATP), and 10 nM NIK/MAP3K14 substituting enzyme with buffer in the blank wells. Incubations were carried out for 1 h at 25° C. and were followed by washing and sequential incubation with rabbit anti-phospho-MBP and anti-rabbit Ig Sulfotag antibody before reading bound Sulfotag on a Mesoscale Discovery. Signal obtained in the wells containing blank samples was subtracted from all other wells and […] were determined by fitting a sigmoidal curve to % inhibition of control versus Log10 compound concentration.
Data for the compounds of the invention in the above assays are provided in Table A (the values in Table are averaged values over all measurements on all batches of a compound; values as IC50 (nM)). (‘n.c.’ means not calculated: ‘Co.’ means compound)

[2] = biological target: T1, recombinant human NF-kappaB-inducing kinase (NIK/MAP3K14); test: Biological Assay B: inhibition of auto-phosphorylation of recombinant human NIK/MAP3K14 (AlphaScreen), performed at 2 locations; format: biochemical; details: averaged values
How it was run: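 Run at two separate sites: 1 h, 25° C. reactions containing 0.2 nM GST-NIK, 25 microM ATP and compound (1% DMSO) in Tris pH 7.5/MgCl2 buffer. Phosphorylation detected via anti-phospho-IKK Ser176/180 antibody with AlphaScreen beads; IC50 fitted to % inhibition.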

[3] = test system: P-IKKα levels in L363 (NIK translocated multiple myeloma) cells; test: Biological Assay C: effect of compounds on P-IKKα levels in L363 (NIK translocated multiple myeloma) cells, performed at 2 locations; format: cell-based, human; details: L363 cells, P-IKKα levels, averaged values
How it was run: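 Human L363 cells were primed 24 h with recombinant human BAFF, then treated 2 h with compound (8-point 1:3 dilutions, 1% DMSO) at 37 °C. IC50 came from a sigmoidal fit of % inhibition versus log concentration, determined at two sites.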

[4] = location 2, AlphaScreen auto-phosphorylation, read-out: Assay B location 2 IC50
[5] = Homo sapiens, L-363, location 2, read-out: Assay C location 2 IC50
[6] = location 1, AlphaScreen auto-phosphorylation, read-out: Assay B location 1 IC50
[7] = location 1, NIK auto-phosphorylation, AlphaScreen, read-out: Assay B location 1 IC50
[8] = Homo sapiens, L-363, location 1, read-out: Assay C location 1 IC50

T1 sequence (Q99558 whole entry): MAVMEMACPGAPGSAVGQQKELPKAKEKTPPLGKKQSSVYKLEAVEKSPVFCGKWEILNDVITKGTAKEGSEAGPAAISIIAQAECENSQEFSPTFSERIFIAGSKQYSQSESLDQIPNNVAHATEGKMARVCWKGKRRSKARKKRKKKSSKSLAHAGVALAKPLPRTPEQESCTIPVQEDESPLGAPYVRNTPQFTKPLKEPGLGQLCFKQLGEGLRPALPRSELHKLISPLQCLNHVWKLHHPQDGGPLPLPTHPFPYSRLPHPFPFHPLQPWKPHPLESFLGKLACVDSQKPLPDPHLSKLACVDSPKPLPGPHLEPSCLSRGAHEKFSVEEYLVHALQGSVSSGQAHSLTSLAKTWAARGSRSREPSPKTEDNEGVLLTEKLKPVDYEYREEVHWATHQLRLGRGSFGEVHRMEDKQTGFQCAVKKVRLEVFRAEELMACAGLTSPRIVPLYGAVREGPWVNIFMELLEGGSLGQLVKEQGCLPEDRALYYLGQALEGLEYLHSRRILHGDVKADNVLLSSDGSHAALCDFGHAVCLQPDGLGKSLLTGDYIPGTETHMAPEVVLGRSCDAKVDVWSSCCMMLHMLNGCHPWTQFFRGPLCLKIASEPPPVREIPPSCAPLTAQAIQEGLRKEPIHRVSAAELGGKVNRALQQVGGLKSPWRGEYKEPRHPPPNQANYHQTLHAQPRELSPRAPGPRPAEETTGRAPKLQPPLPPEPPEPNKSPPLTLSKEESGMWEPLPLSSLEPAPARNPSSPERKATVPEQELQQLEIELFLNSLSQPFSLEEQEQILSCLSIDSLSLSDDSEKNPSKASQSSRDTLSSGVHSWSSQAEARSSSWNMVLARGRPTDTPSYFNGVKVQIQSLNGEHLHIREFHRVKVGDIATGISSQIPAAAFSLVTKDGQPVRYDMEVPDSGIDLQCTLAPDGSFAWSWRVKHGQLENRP

Row | SMILES | IC50 [1] | IC50 [2, 4] | IC50 [3, 5] | IC50 [2, 6] | IC50 [2, 7] | melting point | IC50 [3, 8] | IC50 ([3]; location 2, read-out: Assay C location 2 IC50)
1 | CC(=O)NCc1ccc(Nc2nccc(-c3cnc4c(c3)C(C)(CO)CN4)n2)c(C)c1 (stereo not drawn) [Compound 86] | 0.0151 µM | 0.0112 µM | 0.549 µM |  |  |  |  | 
2 | Cc1cc(C(=O)NC2CCOCC2)ccc1Nc1nccc(-c2cnc3c(c2)C(C)(CO)CN3)n1 (stereo not drawn) [Compound 87] | 0.0214 µM | 0.0135 µM | 1.15 µM | 0.0178 µM |  |  |  | 
3 | COc1cc(CNC(C)=O)c(C)c(Nc2nccc(-c3cnc4c(c3)C(C)(CO)CN4)n2)c1 (stereo not drawn) [Compound 84] | 0.0054 µM | 0.0048 µM | 0.049 µM |  |  |  |  | 
4 | COc1ccc(Cl)cc1Nc1nccc(-c2cnc3c(c2)C(C)(CO)CN3)n1 (stereo not drawn) [Compound 354] |  |  |  |  | 0.003 µM | 236 °C |  | 
5 | COc1cc(C(=O)NC2CCN(C)CC2)ccc1Nc1nccc(-c2cnc3c(c2)C(C)(CO)CN3)n1 (stereo not drawn) [Compound 130] | 0.0102 µM | 0.0107 µM | 0.661 µM |  |  |  |  | 
6 | COc1cc(C(=O)NC2CCOCC2)ccc1Nc1ncc(F)c(-c2cnc3c(c2)C(C)(CO)CN3)n1 (single isomer, unassigned) [Compound 349] |  |  |  |  | 0.0036 µM | > 250 °C |  | 
7 | COc1cc(C(=O)NC2CCOCC2)ccc1Nc1ncc(Cl)c(-c2cnc3c(c2)C(C)(CO)CN3)n1 (single isomer, unassigned) [Compound 350] |  |  |  |  | 0.295 µM | > 250 °C |  | 
8 | CC1(C)CNc2ncc(-c3ccnc(Nc4ccc(C(=O)NC5CCOCC5)cc4OC(F)F)n3)cc21 [Compound 82] | 0.0246 µM | 0.0027 µM | 0.282 µM |  |  |  |  | 
9 | Cc1cc(C(=O)N2CCN(C)CC2)ccc1Nc1nccc(-c2cnc3c(c2)C(C)(C)CN3)n1 [Compound 81] | 0.0148 µM | 0.0026 µM | 0.589 µM |  |  |  |  | 
10 | Cc1cc(C(=O)NC2CCOCC2)ccc1Nc1nccc(-c2cnc3c(c2)C(C)(CC#N)CN3)n1 (stereo not drawn) [Compound 126] | 0.0087 µM |  | 0.537 µM | 0.0148 µM |  |  |  | 
11 | COc1cc(N2CC3(CCOCC3)C2)c(Cl)cc1Nc1ncc(F)c(-c2cnc3c(c2)C(C)(CO)CN3)n1 (stereo not drawn) [Compound 345] |  |  |  |  | 0.0191 µM | > 250 °C |  | 
12 | COCCOc1ccc(Cl)cc1Nc1nccc(-c2cnc3c(c2)C(C)(CO)CN3)n1 (stereo not drawn) [Compound 356] |  |  |  |  | 0.0246 µM | 208 °C |  | 
13 | Cc1cc(C(=O)N2CCS(=O)(=O)CC2)ccc1Nc1nccc(-c2cnc3c(c2)C(C)(CO)CN3)n1 (stereo not drawn) [Compound 134] | 0.0039 µM | 0.0044 µM | 0.776 µM |  |  |  |  | 
14 | COc1cc(C(=O)N2CCS(=O)(=O)CC2)ccc1Nc1nccc(-c2cnc3c(c2)C(C)(CO)CN3)n1 (stereo not drawn) [Compound 132] | 0.0033 µM | 0.0031 µM | 0.513 µM | 0.01 µM |  |  |  | 
15 | Cc1ccc(Cl)cc1Nc1nccc(-c2cnc3c(c2)C(C)(CO)CN3)n1 (stereo not drawn) [Compound 355] |  |  |  |  | 0.0025 µM | 221 °C |  | 
16 | COc1cc(Nc2nccc(-c3cnc4c(c3)C(C)(CO)CN4)n2)cc(OC)c1OC (stereo not drawn) [Compound 46] | 0.0033 µM | 0.0028 µM | ~0.129 µM |  |  |  |  | 
17 | Cc1cc(C(=O)NC2CN(C)C2)ccc1Nc1nccc(-c2cnc3c(c2)C(C)(C)CN3)n1 [Compound 55] | 0.0324 µM | 0.0033 µM | 0.288 µM |  |  |  |  | 
18 | COC1CCN(C(=O)c2ccc(Nc3nccc(-c4cnc5c(c4)C(C)(C)CN5)n3)c(C)c2)CC1 [Compound 79] | 0.0118 µM | 0.0013 µM | 0.0741 µM |  |  |  | 0.661 µM | 

Row | SMILES | IC50 [1] | IC50 [2, 4] | IC50 [3, 5] | IC50 [2, 6] | IC50 [2, 7] | melting point | IC50 [3, 8] | IC50 ([3]; location 2, read-out: Assay C location 2 IC50)
19 | Cc1cc(C(=O)N2CCC(O)CC2)ccc1Nc1nccc(-c2cnc3c(c2)C(C)(C)CN3)n1 [Compound 54] | 0.0089 µM | 0.0034 µM | 0.373 µM |  |  |  | 0.263 µM | 
20 | Cc1cc(C(=O)N2CCOCC2)ccc1Nc1nccc(-c2cnc3c(c2)C(C)(CO)CN3)n1 (stereo not drawn) [Compound 120] | 0.0093 µM | 0.0078 µM | 0.427 µM |  |  |  |  | 
21 | Cc1cc(C(=O)NC2CN(C)C2)ccc1Nc1nccc(-c2cnc3c(c2)C(C)(CO)CN3)n1 (stereo not drawn) [Compound 89] | 0.0631 µM | 0.0204 µM | 5.01 µM |  |  |  |  | 
22 | Cc1cc(C(=O)N2CCC(O)CC2)ccc1Nc1nccc(-c2cnc3c(c2)C(C)(CO)CN3)n1 (stereo not drawn) [Compound 109] | 0.0102 µM | 0.0055 µM | 0.309 µM |  |  |  |  | 
23 | COc1cc(C(=O)N2CCC(OC)CC2)ccc1Nc1nccc(-c2cnc3c(c2)C(C)(CO)CN3)n1 (stereo not drawn) [Compound 131] | 0.0045 µM | 0.0009 µM | 0.0708 µM |  |  |  |  | 
24 | CC(=O)NCc1ccc(Nc2nccc(-c3cnc4c(c3)C(C)(C)CN4)n2)c(C)c1 [Compound 44] | 0.02 µM | 0.0025 µM | 0.243 µM |  |  |  |  | 
25 | COc1cc(C(=O)NC2CCN(C)CC2)ccc1Nc1nccc(-c2cnc3c(c2)C(C)(C)CN3)n1 [Compound 60] | 0.0055 µM | 0.0012 µM | 0.407 µM |  |  |  |  | 
26 | COc1cc(C(=O)NC2CCOCC2)ccc1Nc1nccc(-c2cnc3c(c2)C(C)(C)CN3)n1 [Compound 50] | 0.0074 µM | 0.0012 µM | 0.0813 µM |  |  |  |  | 
27 | COc1cc(Nc2nccc(-c3cnc4c(c3)C(C)(CO)CN4)n2)c(C)c(C(=O)NC2CN(C)C2)c1 (stereo not drawn) [Compound 90] | 0.0148 µM | 0.0051 µM | 0.759 µM |  |  |  |  | 
28 | COC1CCN(C(=O)c2ccc(Nc3nccc(-c4cnc5c(c4)C(C)(CO)CN5)n3)c(C)c2)CC1 (stereo not drawn) [Compound 121] | 0.0112 µM | 0.0072 µM |  |  |  |  |  | 0.38 µM
29 | COc1cc(CNC(C)=O)c(C)c(Nc2nccc(-c3cnc4c(c3)C(C)(C)CN4)n2)c1 [Compound 49] | 0.0062 µM | 0.0018 µM | 0.0437 µM |  |  |  | 0.549 µM | 
30 | COc1cc(CNC(C)=O)ccc1Nc1nccc(-c2cnc3c(c2)C(C)(C)CN3)n1 [Compound 62] | 0.0055 µM | 0.0014 µM | 0.0437 µM |  |  |  |  | 
31 | CC(=O)NCc1ccc(Nc2nccc(-c3cnc4c(c3)C(C)(C)CN4)n2)c(OC(F)F)c1 [Compound 85] | 0.0141 µM | 0.003 µM | 0.0676 µM |  |  |  |  | 
32 | COc1cc(C(=O)NC2CCOCC2)ccc1Nc1nccc(-c2cnc3c(c2)C(C)(CO)CN3)n1 (stereo not drawn) [Compound 1] | 0.012 µM | 0.0026 µM | 0.129 µM |  |  |  |  | 
33 | CC(=O)NCc1cccc(Nc2nccc(-c3cnc4c(c3)C(C)(CO)CN4)n2)c1C (stereo not drawn) [Compound 360] | 0.0776 µM | 0.0339 µM | 0.912 µM |  |  |  |  | 
34 | CN1CCC(NC(=O)c2ccc(Nc3nccc(-c4cnc5c(c4)C(C)(C)CN5)n3)c(Cl)c2)CC1 [Compound 103] | 0.155 µM |  | 3.09 µM |  |  |  |  | 
35 | COc1cc(Nc2nccc(-c3cnc4c(c3)C(C)(C)CN4)n2)c(C)c(C(=O)NC2CCOCC2)c1 [Compound 105] | 0.0302 µM |  | 0.436 µM |  |  |  |  | 
36 | Cc1cc(C(=O)NC2CCOCC2)ccc1Nc1nccc(-c2cnc3c(c2)C(C)(CCC#N)CN3)n1 (stereo not drawn) [Compound 125] | 0.0123 µM |  | 1.23 µM | 0.0316 µM |  |  |  | 
